From paper PMC5392334, “Discovery and characterization of a novel irreversible EGFR mutants selective and potent kinase inhibitor CHMFL-EGFR-26 with a distinct binding mode” (Oncotarget, 2017)
Where two headings read alike, the source gives them in different places.

How the values were obtained:
RAF1 = molecular target: T1, RAF1 (Homo sapiens, UniProt P04049); assay: KinomeScan; assay type: binding; settings: read-out: % control
T1 construct: purchased DiscoveRx KINOMEscan

MELK = molecular target: T2, MELK (Homo sapiens, UniProt Q14680); assay: KinomeScan; assay type: binding; settings: read-out: % control
T2 construct: purchased DiscoveRx KINOMEscan

MKNK1 = molecular target: T3, MKNK1 (Homo sapiens, UniProt Q9BUB5); assay: KinomeScan; assay type: binding; settings: read-out: % control
T3 construct: purchased DiscoveRx KINOMEscan

PC9 tumor xenografts = assay: PC9 cell inoculated xenograft mouse model; assay type: in vivo, mice; settings: 21-day treatment
Method: Figure 5 Anti-tumor efficacy of CHMFL-EGFR-26 in PC9 cell inoculated xenograft mouse mode Female nu/nu mice bearing established PC9 tumor xenografts were treated with CHMFL-EGFR-26 at 25.0 and 50.0 mg/kg/d, or vehicle. Daily oral administration was initiated when PC9 tumors had reached a size of 200 to 400 mm^3. Each group contained 7 or 8 animals. Data, mean ± SEM. A. Body weight and B. Tumor size measurements from PC9 xenograft mice after CHMFL-EGFR-26 administration. Initial body weight and tumor size were set as 100%. C. Representative photographs of tumors in each group after 25.0 or 50.0 mg/kg/d CHMFL-EGFR-26 or vehicle treatment. D. Comparison of the final tumor weight in each group after 21-day treatment period. Numbers in columns indicate the mean tumor weight in each group. E. Representative micrographs of hematoxylin and eosin (HE), Ki-67, and TUNEL staining of tumor tissues with CHMFL-EGFR-26 treatment compared to the vehicle-treated group. […]
Five-week old female nu/nu mice were purchased from the Shanghai Experimental Center, Chinese Science Academy (Shanghai, China). […] Body weight and tumor growth was measured daily after CHMFL-EGFR-26 treatment. Tumor volumes were calculated as follows: tumor volume (mm^3)= [(W^2 × L)/2] in which width (W) is defined as the smaller of the two measurements and length (L) is defined as the larger of the two measurements.

YANK1 = molecular target: T4, YANK1 (Homo sapiens, UniProt Q8WU08); assay: KinomeScan; assay type: binding; settings: read-out: % control
T4 construct: purchased DiscoveRx KINOMEscan

PFTAIRE2 = molecular target: T5, PFTAIRE2 (Homo sapiens, UniProt Q96Q40); assay: KinomeScan; assay type: binding; settings: read-out: % control
T5 construct: purchased DiscoveRx KINOMEscan

MARK4 = molecular target: T6, MARK4 (Homo sapiens, UniProt Q96L34); assay: KinomeScan; assay type: binding; settings: read-out: % control
T6 construct: purchased DiscoveRx KINOMEscan

SGK3 = molecular target: T7, SGK3 (Homo sapiens, UniProt Q96BR1); assay: KinomeScan; assay type: binding; settings: read-out: % control
T7 construct: purchased DiscoveRx KINOMEscan

RET(M918T) = molecular target: T8, RET(M918T) (Homo sapiens, UniProt P07949, M918T); assay: KinomeScan; assay type: binding; settings: read-out: % control
T8 construct: purchased DiscoveRx KINOMEscan

[1] = Pharmacokinetic properties in rats; assay type: in vivo; settings: for MRT last: read-out: MRT(0-t)
Method: To further investigate the effect of CHMFL-EGFR-26 in vivo, we first examined its pharmacokinetic properties in rats (Supplementary Table 5). The half-life is 0.8 hour by oral dosing which is short but considering the irreversible binding mode, this short half-life was preferred. […]

EPHB3 = molecular target: T9, EPHB3 (Homo sapiens, UniProt P54753); assay: KinomeScan; assay type: binding; settings: read-out: % control
T9 construct: purchased DiscoveRx KINOMEscan

FES = molecular target: T10, FES (Homo sapiens, UniProt P07332); assay: KinomeScan; assay type: binding; settings: read-out: % control
T10 construct: purchased DiscoveRx KINOMEscan

DMPK = molecular target: T11, DMPK (Homo sapiens, UniProt Q09013); assay: KinomeScan; assay type: binding; settings: read-out: % control
T11 construct: purchased DiscoveRx KINOMEscan

DAPK1 = molecular target: T12, DAPK1 (Homo sapiens, UniProt P53355); assay: KinomeScan; assay type: binding; settings: read-out: % control
T12 construct: purchased DiscoveRx KINOMEscan

NDR2 = molecular target: T13, NDR2 (Homo sapiens, UniProt Q9Y2H1); assay: KinomeScan; assay type: binding; settings: read-out: % control
T13 construct: purchased DiscoveRx KINOMEscan

SRPK1 = molecular target: T14, SRPK1 (Homo sapiens, UniProt Q96SB4); assay: KinomeScan; assay type: binding; settings: read-out: % control
T14 construct: purchased DiscoveRx KINOMEscan

[2] = molecular target: T15, EGFR(L747-E749del, A750P) (Homo sapiens, UniProt P00533, A750P/DEL747-749); assay: KinomeScan; assay type: binding; settings: read-out: % control
T15 construct: purchased DiscoveRx KINOMEscan

PIK3CB = molecular target: T16, PIK3CB (Homo sapiens, UniProt P42338); assay: KinomeScan; assay type: binding; settings: read-out: % control
T16 construct: purchased DiscoveRx KINOMEscan

ARK5 = molecular target: T17, ARK5 (Homo sapiens, UniProt O60285); assay: KinomeScan; assay type: binding; settings: read-out: % control
T17 construct: purchased DiscoveRx KINOMEscan

MAST1 = molecular target: T18, MAST1 (Homo sapiens, UniProt Q9Y2H9); assay: KinomeScan; assay type: binding; settings: read-out: % control
T18 construct: purchased DiscoveRx KINOMEscan

FER = molecular target: T19, FER (Homo sapiens, UniProt P16591); assay: KinomeScan; assay type: binding; settings: read-out: % control
T19 construct: purchased DiscoveRx KINOMEscan

VPS34 = molecular target: T20, VPS34 (Homo sapiens, UniProt Q8NEB9); assay: KinomeScan; assay type: binding; settings: read-out: % control
T20 construct: purchased DiscoveRx KINOMEscan

WNK4 = molecular target: T21, WNK4 (Homo sapiens, UniProt Q96J92); assay: KinomeScan; assay type: binding; settings: read-out: % control
T21 construct: purchased DiscoveRx KINOMEscan

[3] = rat, in vivo, po, P.O. (10mg/kg)

T4 sequence (Q8WU08 whole entry): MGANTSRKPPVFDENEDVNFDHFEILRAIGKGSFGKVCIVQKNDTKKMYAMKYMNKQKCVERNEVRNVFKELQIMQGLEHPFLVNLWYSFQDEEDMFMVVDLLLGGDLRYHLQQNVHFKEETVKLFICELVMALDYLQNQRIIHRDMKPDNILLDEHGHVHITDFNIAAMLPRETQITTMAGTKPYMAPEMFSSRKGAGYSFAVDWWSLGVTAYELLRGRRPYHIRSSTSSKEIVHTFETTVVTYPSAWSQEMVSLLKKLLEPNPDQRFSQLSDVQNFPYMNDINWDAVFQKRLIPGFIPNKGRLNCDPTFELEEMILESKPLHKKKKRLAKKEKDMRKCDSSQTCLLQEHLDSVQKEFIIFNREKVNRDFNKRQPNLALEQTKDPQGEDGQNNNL
T20 sequence (Q8NEB9 whole entry): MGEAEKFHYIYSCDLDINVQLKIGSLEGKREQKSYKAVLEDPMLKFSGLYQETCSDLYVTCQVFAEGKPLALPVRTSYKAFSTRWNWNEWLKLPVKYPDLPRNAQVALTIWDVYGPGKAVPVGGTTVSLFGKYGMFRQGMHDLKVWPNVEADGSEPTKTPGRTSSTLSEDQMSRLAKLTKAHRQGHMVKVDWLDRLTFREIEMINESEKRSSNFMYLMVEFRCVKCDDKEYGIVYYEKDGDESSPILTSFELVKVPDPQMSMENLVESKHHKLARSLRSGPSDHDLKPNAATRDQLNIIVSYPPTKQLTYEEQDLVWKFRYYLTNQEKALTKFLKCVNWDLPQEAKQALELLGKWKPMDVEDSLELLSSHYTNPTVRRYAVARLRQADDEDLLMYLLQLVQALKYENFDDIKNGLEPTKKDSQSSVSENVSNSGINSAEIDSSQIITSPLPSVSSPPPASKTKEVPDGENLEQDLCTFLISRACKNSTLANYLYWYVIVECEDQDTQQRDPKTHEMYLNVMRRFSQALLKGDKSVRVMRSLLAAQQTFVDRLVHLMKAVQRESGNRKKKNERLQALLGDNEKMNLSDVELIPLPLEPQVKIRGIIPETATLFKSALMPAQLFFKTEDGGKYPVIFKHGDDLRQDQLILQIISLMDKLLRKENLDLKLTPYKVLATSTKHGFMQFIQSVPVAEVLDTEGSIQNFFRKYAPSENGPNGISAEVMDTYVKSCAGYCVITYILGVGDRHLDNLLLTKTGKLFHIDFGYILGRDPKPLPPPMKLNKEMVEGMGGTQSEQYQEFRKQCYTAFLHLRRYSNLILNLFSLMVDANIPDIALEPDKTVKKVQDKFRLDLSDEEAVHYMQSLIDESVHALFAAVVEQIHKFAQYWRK
T2 sequence (Q14680 whole entry): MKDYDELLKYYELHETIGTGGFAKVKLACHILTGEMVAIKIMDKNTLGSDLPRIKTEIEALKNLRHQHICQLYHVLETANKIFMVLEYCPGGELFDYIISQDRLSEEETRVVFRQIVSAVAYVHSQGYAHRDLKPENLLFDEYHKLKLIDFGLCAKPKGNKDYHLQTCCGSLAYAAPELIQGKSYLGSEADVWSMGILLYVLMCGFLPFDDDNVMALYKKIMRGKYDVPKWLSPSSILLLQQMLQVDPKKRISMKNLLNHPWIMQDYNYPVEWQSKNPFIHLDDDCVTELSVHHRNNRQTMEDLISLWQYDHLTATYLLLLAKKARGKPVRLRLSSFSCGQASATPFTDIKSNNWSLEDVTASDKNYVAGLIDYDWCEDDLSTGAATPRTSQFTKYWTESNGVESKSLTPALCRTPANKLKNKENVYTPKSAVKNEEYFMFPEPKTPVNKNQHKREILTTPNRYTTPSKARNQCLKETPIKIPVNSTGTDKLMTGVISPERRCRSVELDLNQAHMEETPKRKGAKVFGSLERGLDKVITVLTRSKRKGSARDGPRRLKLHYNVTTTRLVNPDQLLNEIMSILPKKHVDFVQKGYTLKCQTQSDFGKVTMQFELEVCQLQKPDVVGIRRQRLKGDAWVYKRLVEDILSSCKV
T1 sequence (P04049 whole entry): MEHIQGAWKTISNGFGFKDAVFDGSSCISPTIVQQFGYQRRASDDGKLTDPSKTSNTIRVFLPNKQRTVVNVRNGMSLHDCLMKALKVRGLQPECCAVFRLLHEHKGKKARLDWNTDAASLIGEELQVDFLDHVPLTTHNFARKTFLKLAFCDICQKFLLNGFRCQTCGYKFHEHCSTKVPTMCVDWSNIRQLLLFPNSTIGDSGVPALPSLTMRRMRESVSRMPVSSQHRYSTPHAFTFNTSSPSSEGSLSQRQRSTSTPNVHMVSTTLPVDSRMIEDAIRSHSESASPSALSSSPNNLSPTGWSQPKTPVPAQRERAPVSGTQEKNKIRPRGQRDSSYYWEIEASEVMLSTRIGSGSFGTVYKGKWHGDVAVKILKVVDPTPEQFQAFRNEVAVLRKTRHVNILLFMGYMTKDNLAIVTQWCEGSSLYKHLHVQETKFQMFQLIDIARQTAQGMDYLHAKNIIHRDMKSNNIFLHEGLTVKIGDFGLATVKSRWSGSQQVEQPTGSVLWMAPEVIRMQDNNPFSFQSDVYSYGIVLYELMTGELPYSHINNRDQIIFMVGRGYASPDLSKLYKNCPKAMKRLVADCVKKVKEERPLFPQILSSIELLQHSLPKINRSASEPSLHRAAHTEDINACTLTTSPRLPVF
T21 sequence (Q96J92 whole entry): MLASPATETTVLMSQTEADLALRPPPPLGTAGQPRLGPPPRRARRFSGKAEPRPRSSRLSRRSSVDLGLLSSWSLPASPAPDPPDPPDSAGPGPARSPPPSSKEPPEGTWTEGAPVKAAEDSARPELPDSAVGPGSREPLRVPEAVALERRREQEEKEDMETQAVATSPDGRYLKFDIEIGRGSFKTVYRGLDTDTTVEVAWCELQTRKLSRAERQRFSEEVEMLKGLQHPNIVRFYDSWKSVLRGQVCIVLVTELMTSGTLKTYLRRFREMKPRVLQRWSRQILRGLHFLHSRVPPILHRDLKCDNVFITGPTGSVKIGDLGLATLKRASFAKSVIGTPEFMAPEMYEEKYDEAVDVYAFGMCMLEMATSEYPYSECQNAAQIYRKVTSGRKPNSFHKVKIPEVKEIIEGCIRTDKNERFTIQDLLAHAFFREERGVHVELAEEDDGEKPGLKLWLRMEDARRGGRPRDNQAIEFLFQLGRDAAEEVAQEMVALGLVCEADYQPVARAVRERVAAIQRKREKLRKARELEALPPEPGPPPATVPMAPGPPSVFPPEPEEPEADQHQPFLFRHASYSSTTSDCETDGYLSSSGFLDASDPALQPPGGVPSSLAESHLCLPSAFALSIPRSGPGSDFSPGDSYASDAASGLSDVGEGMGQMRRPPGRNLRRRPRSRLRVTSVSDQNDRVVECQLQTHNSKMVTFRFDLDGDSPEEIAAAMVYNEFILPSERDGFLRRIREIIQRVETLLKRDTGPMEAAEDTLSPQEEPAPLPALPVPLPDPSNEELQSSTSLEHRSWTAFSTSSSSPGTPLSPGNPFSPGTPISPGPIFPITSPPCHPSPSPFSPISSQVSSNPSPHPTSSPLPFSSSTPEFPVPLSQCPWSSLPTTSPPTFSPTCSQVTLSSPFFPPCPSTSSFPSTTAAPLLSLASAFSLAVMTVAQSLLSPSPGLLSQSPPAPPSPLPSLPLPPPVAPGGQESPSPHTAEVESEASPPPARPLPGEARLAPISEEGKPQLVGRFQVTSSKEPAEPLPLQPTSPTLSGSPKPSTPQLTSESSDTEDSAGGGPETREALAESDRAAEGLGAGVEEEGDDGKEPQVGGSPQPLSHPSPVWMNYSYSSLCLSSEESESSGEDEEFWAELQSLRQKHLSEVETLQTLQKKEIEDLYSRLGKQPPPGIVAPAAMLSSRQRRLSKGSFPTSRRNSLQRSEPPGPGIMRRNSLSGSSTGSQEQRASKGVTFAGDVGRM
T13 sequence (Q9Y2H1 whole entry): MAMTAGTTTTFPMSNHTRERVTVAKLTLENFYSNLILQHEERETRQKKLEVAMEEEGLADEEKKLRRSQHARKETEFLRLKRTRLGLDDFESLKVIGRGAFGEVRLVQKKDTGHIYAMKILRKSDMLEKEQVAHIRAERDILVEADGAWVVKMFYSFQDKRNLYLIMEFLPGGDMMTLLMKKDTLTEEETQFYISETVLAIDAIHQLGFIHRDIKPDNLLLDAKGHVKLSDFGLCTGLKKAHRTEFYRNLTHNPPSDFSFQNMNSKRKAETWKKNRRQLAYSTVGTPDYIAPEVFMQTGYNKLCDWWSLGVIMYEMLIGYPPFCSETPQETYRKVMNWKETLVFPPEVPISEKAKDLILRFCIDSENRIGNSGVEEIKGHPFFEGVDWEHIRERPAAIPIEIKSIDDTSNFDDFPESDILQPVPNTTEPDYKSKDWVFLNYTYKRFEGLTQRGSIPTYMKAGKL
T11 sequence (Q09013 whole entry): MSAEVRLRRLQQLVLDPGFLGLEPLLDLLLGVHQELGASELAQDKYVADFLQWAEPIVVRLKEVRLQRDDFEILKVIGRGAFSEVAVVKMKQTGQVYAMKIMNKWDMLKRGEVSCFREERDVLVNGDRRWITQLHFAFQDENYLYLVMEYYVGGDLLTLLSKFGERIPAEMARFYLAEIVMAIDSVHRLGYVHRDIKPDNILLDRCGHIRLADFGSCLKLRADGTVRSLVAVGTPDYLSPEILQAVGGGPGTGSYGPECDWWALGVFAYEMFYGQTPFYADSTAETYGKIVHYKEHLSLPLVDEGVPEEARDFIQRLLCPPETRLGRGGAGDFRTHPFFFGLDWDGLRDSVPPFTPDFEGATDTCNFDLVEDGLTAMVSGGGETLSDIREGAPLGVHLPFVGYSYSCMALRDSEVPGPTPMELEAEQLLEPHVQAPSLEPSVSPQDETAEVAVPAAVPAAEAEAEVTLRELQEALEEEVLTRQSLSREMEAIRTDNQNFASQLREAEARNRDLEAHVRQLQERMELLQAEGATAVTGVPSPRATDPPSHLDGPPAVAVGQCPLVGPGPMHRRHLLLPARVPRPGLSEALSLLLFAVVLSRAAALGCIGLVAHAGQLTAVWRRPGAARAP

C=CC(=O)N1CCC[C@@H](n2nc(-c3ccc(OCc4cccc(C)n4)c(Cl)c3)c3c(N)ncnc32)C1 [CHMFL-EGFR-26]
remaining binding at 1 µM (RAF1): 97%
remaining binding at 1 µM (MELK): 41%
remaining binding at 1 µM (MKNK1): 100%
Tumor weight (final, mean) (PC9 tumor xenografts; 25 mg/kg/d oral): 0.93 g
Tumor weight (final, mean) (PC9 tumor xenografts; 50 mg/kg/d oral): 0.68 g
remaining binding at 1 µM (YANK1): 3.6%
remaining binding at 1 µM (PFTAIRE2): 97%
remaining binding at 1 µM (MARK4): 100%
remaining binding at 1 µM (SGK3): 83%
remaining binding at 1 µM (RET(M918T)): 100%
CLz ([1]; P.O. (10mg/kg)): 42.2 ± 7.5 mL/min/kg
Vz ([1]; P.O. (10mg/kg)): 2.62 ± 0.14 L/kg
T1/2 ([1]; P.O. (10mg/kg), 10 mg/kg): 48 min
half-life ([1]; rat, in vivo, iv, 1 mg/kg, I.V (1mg/kg)): 18.6 ± 4.92 min
AUC(0-inf) ([1]; rat, in vivo, iv, I.V (1mg/kg)): 1190 ± 143 ng·h/mL
AUC(0-t) ([1]; rat, in vivo, iv, I.V (1mg/kg)): 1190 ± 142 ng·h/mL
Cmax ([1]; rat, in vivo, iv, I.V (1mg/kg)): 10600 ± 1650 ng/mL
Tmax ([1]; rat, in vivo, iv, I.V (1mg/kg)): 1.02 min
clearance ([1]; rat, in vivo, iv, I.V (1mg/kg), read-out: CLz (converted)): 14.2 mL/min/kg
MRT last ([1]; rat, in vivo, iv, I.V (1mg/kg)): 10.8 ± 2.1 min
Vd ([1]; rat, in vivo, iv, I.V (1mg/kg), read-out: Vz): 0.38 ± 0.13 L/kg
half-life ([1]; rat, in vivo, po, 10 mg/kg, P.O. (10mg/kg)): 44.4 ± 9 min
AUC(0-inf) [1, 3]: 4040 ± 717 ng·h/mL
AUC(0-t) [1, 3]: 4040 ± 716 ng·h/mL
Cmax [1, 3]: 5210 ± 859 ng/mL
Tmax [1, 3]: 19.8 ± 8.4 min
bioavailability ([1]; rat, in vivo, po, P.O. (10mg/kg), read-out: F% (bioavailability)): 33.8%
MRT last [1, 3]: 43.2 ± 4.14 min
remaining binding at 1 µM (EPHB3): 100%
remaining binding at 1 µM (FES): 97%
remaining binding at 1 µM (DMPK): 66%
remaining binding at 1 µM (DAPK1): 77%
remaining binding at 1 µM (NDR2): 100%
remaining binding at 1 µM (SRPK1): 100%
remaining binding at 1 µM [2]: 10%
remaining binding at 1 µM (PIK3CB): 94%
remaining binding at 1 µM (ARK5): 77%
remaining binding at 1 µM (MAST1): 93%
remaining binding at 1 µM (FER): 56%
remaining binding at 1 µM (VPS34): 89%
remaining binding at 1 µM (WNK4): 86%
